This is an account of results in PMC9611449, “Hydroxy-3-Phenylcoumarins as Multitarget Compounds for Skin Aging Diseases: Synthesis, Molecular Docking and Tyrosinase, Elastase, Collagenase and Hyaluronidase Inhibition, and Sun Protection Factor” (Molecules, 2022).

Several values for one entry are separate records, joined by “and”; a condition that tells them apart may be missing. Equal entries are not always repeated. Entries after “also recorded” stand apart in the source; their conditions may differ. Where two headings read alike, the source gives them in different places.

Data set [1] concerns the target porcine pancreatic elastase (Sus scrofa, UniProt P00772). The experiment in a line: Elastase inhibition assay (SANA substrate). Conditions: for inhibition at 50 µM: read-out: Enzyme inhibition Elastase; for IC50: mean ± SD of three independent experiments. Type of data set: biochemical. The protocol: (§1) Since the compounds were dissolved in DMSO, in the assays carried out without compounds, DMSO was added to the reaction mixture as blank control. […] Data from activity experiments were recorded using an Ultrospec 2100 spectrophotometer (Biochrom Ltd., Cambridge, UK).
The inhibition of elastase was determined by measuring the production of p-nitroaniline during the reaction of the enzyme with the N-succ-(Ala)3-nitroanilide (SANA) substrate. The assay was carried out in Tris-HCl buffer (0.1 M, pH 8.0) containing porcine pancreatic elastase (3.3 µg/mL). The reaction mixture was incubated in the presence or in the absence of the test compounds for 20 minutes and, once the substrate (1.6 mM) was added, the enzyme activity was monitored at 410 nm.

The test system of data set [2] is Collagenase from Clostridium histolyticum. The experiment in a line: Collagenase inhibition assay (FALGPA substrate). The data set is classed as biochemical. The note with it: for Enzyme inhibition Collagenase: 100 μM; for IC50: mean ± SD of three independent experiments. The method, then: Results from all the inhibition tests described below were reported as a percentage of the blank control. Since the compounds were dissolved in DMSO, in the assays carried out without compounds, DMSO was added to the reaction mixture as blank control. […] Data from activity experiments were recorded using an Ultrospec 2100 spectrophotometer (Biochrom Ltd., Cambridge, UK).
Collagenase from Clostridium histolyticum (1 U/mL) was prepared in 0.05 M Tricine buffer (pH 7.5), with 0.4 M NaCl and 0.01 M CaCl2, and incubated with different concentrations of test samples for 15 minutes. After adding the N-(3-[2-Furyl]-acryloyl)-Leu-Gly-Pro-Ala (FALGPA) substrate, prepared in the same buffer solution reaching a final concentration of 0.8 mM, the absorbance was registered at 340 nm. Epigallocatechin gallate was used as a positive control.

Data set [3] relates to Human skin keratinocyte cell line (HaCaT). The data set can be described thus: HaCaT cell viability (MTT assay). The data set is classed as cell-based. Conditions: 10–200 μM, 24 h. The protocol:
Human skin keratinocyte cell line (HaCaT; CLS–Cell Lines Service, Eppelheim, Germany) was cultured in Dulbecco’s Modified Eagle’s Medium (DMEM) with 10% fetal bovine serum (FBS; Gibco, NY, USA) and 1% penicillin/streptomycin at 37 °C in a humidified atmosphere with 5% CO2. Cell viability was determined by the MTT (3-(4,5-dimethylthiazol-2-yl)-2,5-diphenyltetrazolium bromide) colorimetric assay, as previously reported. Briefly, HaCaT cells were seeded in 96-well plates and incubated with compounds at different concentrations (0–200 µM). After 24 h, cells were labelled with MTT solution for 3 h at 37 °C. DMSO was added to the formed violet formazan precipitates and the absorbance of each well was measured at 560 nm.

Data set [4] relates to mushroom tyrosinase. The experiment in a line: Tyrosinase inhibition assay (L-DOPA substrate). Conditions: for Enzyme inhibition Tyrosinase: 50 μM; for IC50: mean ± SD of three independent experiments; for times more active than the standard inhibitor kojic acid (tyrosinase): ratio of IC50 values. Type of data set: biochemical. The protocol: as §1
The inhibition of tyrosinase was monitored by using DOPA as substrate. The reaction solution contained phosphate buffer (25 mM, pH 6.8) and mushroom tyrosinase (100 U/mL), with or without test samples.

Data set [5] in a line: In vitro determination of the sun protection factor (UV absorbance, Mansur equation). Type of data set: physicochemical. The note with it: compounds 0.1 mg/mL, absorbance 290–320 nm. The method, then: The sun protection factor of coumarins’ derivatives was measured by the UV absorbance method, as previously reported. The absorbances of the compounds (0.1 mg/mL) were registered in the range of 290–320 nm, with 5 nm increments, and three measurements were performed at each point. The SPF was determined by using the Mansur Equation [23]: SPF=CF × Σ290320 × EE(λ) × I(λ) × Abs(λ) where CF = correction factor (10); EE (λ) = erythemogenic effect of radiation with wavelength λ; I(λ) = solar intensity spectrum; Abs(λ) = spectrophotometric absorbance values at wavelength λ. The values of EE (λ) × I(λ) are constant as determined by Sayre et al. (Table 5).

A further data set deals with T1, hyaluronidase (Bos taurus, UniProt Q2YDK3).
T1 sequence (Q2YDK3 36-553): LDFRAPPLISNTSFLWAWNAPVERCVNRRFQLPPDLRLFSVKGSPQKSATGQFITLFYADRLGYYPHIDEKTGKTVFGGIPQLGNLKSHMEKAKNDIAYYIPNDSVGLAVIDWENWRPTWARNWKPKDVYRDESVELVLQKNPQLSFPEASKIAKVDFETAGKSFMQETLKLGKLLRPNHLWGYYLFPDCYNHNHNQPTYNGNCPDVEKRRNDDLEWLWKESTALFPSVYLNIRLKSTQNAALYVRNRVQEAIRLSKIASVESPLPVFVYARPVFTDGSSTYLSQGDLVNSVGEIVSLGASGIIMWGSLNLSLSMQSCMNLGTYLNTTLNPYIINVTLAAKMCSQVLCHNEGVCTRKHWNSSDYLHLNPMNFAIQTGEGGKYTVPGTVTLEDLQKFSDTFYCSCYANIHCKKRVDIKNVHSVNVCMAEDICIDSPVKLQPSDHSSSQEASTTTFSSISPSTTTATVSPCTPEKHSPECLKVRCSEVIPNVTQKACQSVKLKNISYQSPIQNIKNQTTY
The data set can be described thus: Hyaluronidase inhibition assay. Type of data set: biochemical. The note with it: ratio of IC50 values. The method, then: as §1
Inhibition of hyaluronidase was determined following the method reported by Chompoo and co-authors. A 5 μL test sample was incubated with 100 μL of enzyme solution (1.5 U) containing 20 mM sodium phosphate buffer (pH 7.0) with 77 mM NaCl and bovine serum albumin (BSA) 0.01%. […] After 10 minutes at room temperature, the absorbance was monitored at 600 nm.

The target of data set [6] is mushroom tyrosinase. Also on record: method as in doi:10.1039/C5RA14465E. The note with it: data previously reported; cited from earlier work.

porcine pancreatic elastase, sequence (P00772 27-266): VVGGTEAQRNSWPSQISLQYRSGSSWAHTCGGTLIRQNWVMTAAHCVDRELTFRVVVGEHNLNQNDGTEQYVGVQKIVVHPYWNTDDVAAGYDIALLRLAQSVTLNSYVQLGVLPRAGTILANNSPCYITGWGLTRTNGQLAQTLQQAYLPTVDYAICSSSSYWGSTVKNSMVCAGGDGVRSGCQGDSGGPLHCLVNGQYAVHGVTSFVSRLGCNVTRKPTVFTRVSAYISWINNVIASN

For `O=c1oc2cc(O)cc(O)c2cc1-c1cccc(Br)c1` [Compound 2, 3-(3′-Bromophenyl)-5,7-dihydroxycoumarin], in data set [1], the inhibition at 50 µM is 20.3% and the IC50 is above 50 µM. In data set [2], the “Enzyme inhibition Collagenase” value turned out to be 44.3% and half-maximal inhibition (IC50) was put at 110 ± 2.8 µM. Besides, the “Cytotoxicity on HaCaT cell viability” value in data set [3] is on record as “non-cytotoxic; also recorded: no toxicity”. In the data set on mushroom tyrosinase [4], the “Enzyme inhibition Tyrosinase” value is reported as 79.2%; the IC50 was 7.03 µM and 7 µM; the “times more active than the standard inhibitor kojic acid (tyrosinase)” value was found to be 2.6 times. For the same compound, the SPF in data set [5] is listed as 4.52 ± 0.22.

Regarding `O=c1oc2cc(O)c(O)cc2cc1-c1ccc(Br)cc1` [Compound 4, 3-(4′-Bromophenyl)-6,7-dihydroxycoumarin], the “times more active than the reference compound oleanolic acid (hyaluronidase)” value on hyaluronidase was found to be 1.9 times. In data set [1], the inhibition at 50 µM came out at 30.5% and the IC50 was above 50 µM. In addition, in data set [2], the “Enzyme inhibition Collagenase” value is given as “N.I” and the IC50 is above 150 µM. Further, in the data set with mushroom tyrosinase [4], the “Enzyme inhibition Tyrosinase” value was determined as 58.3% and inhibition was half-maximal at 39.9 ± 0.7 µM (IC50).

Compound `O=c1oc2cc(O)cc(O)c2cc1-c1ccc(Br)cc1` [Compound 1, 3-(4′-Bromophenyl)-5,7-dihydroxycoumarin] returned a melting point of 273 to 275 °C. Further, in data set [1], the inhibition at 50 µM was determined as 15.6% and the IC50 is above 50 µM. In data set [2], the “Enzyme inhibition Collagenase” value is 42.6% and inhibition was half-maximal at 123 ± 2.2 µM (IC50). Further, the “Cytotoxicity on HaCaT cell viability” value in data set [3] was “non-cytotoxic; also recorded: no toxicity”. Also, in the data set with mushroom tyrosinase [4], the “Enzyme inhibition Tyrosinase” value is 98.3% and the “times more active than the standard inhibitor kojic acid (tyrosinase)” value was 17 times. In addition, the IC50 on mushroom tyrosinase [6] is 1.05 ± 0.06 µM.
